Here are results for one compound from paper PMC4243055 (Cell, 2014).

The target in this assay is T1, Cdc25 phosphatase (CnCdc25) (Cryptococcus neoformans, UniProt J9VTJ5).
T1 sequence (J9VTJ5 442-662): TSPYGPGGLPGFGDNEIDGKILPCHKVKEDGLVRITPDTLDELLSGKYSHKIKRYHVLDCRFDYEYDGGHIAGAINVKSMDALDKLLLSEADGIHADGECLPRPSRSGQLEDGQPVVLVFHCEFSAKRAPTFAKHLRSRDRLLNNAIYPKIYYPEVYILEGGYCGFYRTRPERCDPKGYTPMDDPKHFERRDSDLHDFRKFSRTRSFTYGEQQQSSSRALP
Put plainly: in vitro phosphatase assay with OMFP substrate, Michaelis-Menten kinetics. The class given is biochemical.

The Ki is the dissociation constant of the complex between target and ligand, obtained from inhibition or displacement. Higher therefore signals lower affinity. For the compound `O=C1C(NCCN2CCOCC2)=C(Cl)C(=O)c2ncccc21` [NSC 663284, 7-Chloro-6-(2-morpholin-4-ylethylamino)-quinoline-5,8-dione], the Ki is roughly 250 µM.
